Patent US10513493B2, “Cyclopropylamines as LSD1 inhibitors” (Incyte Corporation, priority 2014, dated 2019)

Biological target: LSD-1 enzyme (Homo sapiens (Human), UniProt O60341)
Test: LANCE LSD1/KDM1A demethylase assay (LSD1 histone demethylase biochemical assay)
Details: 1 nM LSD-1 enzyme, 1 hour preincubation at 25° C., 0.4 μM Biotin-labeled Histone H3 peptide substrate
Method: Example A: LSD1 histone demethylase biochemical assay
LANCE LSD1/KDM1A demethylase assay—10 μL of 1 nM LSD-1 enzyme (ENZO BML-SE544-0050) in the assay buffer (50 mM Tris, pH 7.5, 0.01% Tween-20, 25 mM NaCl, 5 mM DTT) were preincubated for 1 hour at 25° C. with 0.8 μL compound/DMSO dotted in black 384 well polystyrene plates. Reactions were started by addition of 10 μL of assay buffer containing 0.4 μM Biotin-labeled Histone H3 peptide substrate: ART-K(Me1)-[…]-GGK(Biotin) SEQ ID NO: 1 (AnaSpec 64355) and incubated for 1 hour at 25° C. Reactions were stopped by addition of 10 μL 1× LANCE Detection Buffer (PerkinElmer CR97-100) supplemented with 1.5 nM Eu-anti-unmodified H3K4 Antibody (PerkinElmer TRF0404), and 225 nM LANCE Ultra Streptavidin (PerkinElmer TRF102) along with 0.9 mM Tranylcypromine-HCl (Millipore 616431). After stopping the reactions plates were incubated for 30 minutes and read on a PHERAstar FS plate reader (BMG Labtech).

| Compound | IC50 |
| --- | --- |
| N#Cc1ccc(N2CC(CN[C@@H]3C[C@H]3c3ccccc3)C2)c(F)c1 (relative stereo) [Example 1, 3-Fluoro-4-[3-({[trans-2-phenylcyclopropyl]amino}methyl)azetidin-1-yl]benzonitrile] | < 100 nM |
| N#Cc1cc(F)c(N2CC(CN[C@@H]3C[C@H]3c3ccccc3)C2)c(F)c1 (relative stereo) [Example 2, 3,5-Difluoro-4-[3-({[trans-2-phenylcyclopropyl]amino}methyl)azetidin-1-yl]benzonitrile] | < 100 nM |
| CC(C)NC(=O)c1cc(F)c(N2CC(CN[C@@H]3C[C@H]3c3ccccc3)C2)cc1F (relative stereo) [Example 3, 2,5-Difluoro-N-isopropyl-4-(3-{[(trans-2-phenylcyclopropyl)amino]methyl}azetidin-1-yl)benzamide] | < 100 nM |
| Cc1nc(N2CC(CN[C@@H]3C[C@H]3c3ccccc3)C2)ccc1C#N (relative stereo) [Example 4, 2-Methyl-6-[3-({[trans-2-phenylcyclopropyl]amino}methyl)azetidin-1-yl]nicotinonitrile] | < 100 nM |
| CCNC(=O)c1cnc(N2CC(CN[C@@H]3C[C@H]3c3ccccc3)C2)cn1 (relative stereo) [Example 5, N-Ethyl-5-(3-{[(trans-2-phenylcyclopropyl)amino]methyl}azetidin-1-yl)pyrazine-2-carboxamide] | < 100 nM |
| CC(C)NC(=O)c1cc(F)c(N2CC(CN[C@@H]3C[C@H]3c3ccccc3)C2)c(F)c1 (relative stereo) [Example 6, 3,5-Difluoro-N-isopropyl-4-(3-{[(trans-2-phenylcyclopropyl)amino]methyl}azetidin-1-yl)benzamide] | < 100 nM |
| CC(C)NC(=O)c1c(F)cc(N2CC(CN[C@@H]3C[C@H]3c3ccccc3)C2)cc1F (relative stereo) [Example 7, 2,6-Difluoro-N-isopropyl-4-(3-{[(trans-2-phenylcyclopropyl)amino]methyl}azetidin-1-yl)benzamide] | < 100 nM |
| CC(C)NC(=O)c1ccc(N2CC(CN[C@@H]3C[C@H]3c3ccccc3)C2)c(F)c1F (relative stereo) [Example 8, 2,3-Difluoro-N-isopropyl-4-(3-{[(trans-2-phenylcyclopropyl)amino]methyl}azetidin-1-yl)benzamide] | < 100 nM |
| CC(C)NC(=O)c1cc(F)c(N2CC(CN[C@@H]3C[C@H]3c3ccccc3)C2)cc1Cl (relative stereo) [Example 9, 2-Chloro-5-fluoro-N-isopropyl-4-(3-{[(trans-2-phenylcyclopropyl)amino]methyl}azetidin-1-yl)benzamide] | < 100 nM |
| CC(C)NC(=O)c1ccc(N2CC(CN[C@@H]3C[C@H]3c3ccccc3)C2)c(F)c1 (relative stereo) [Example 10, 3-Fluoro-N-isopropyl-4-(3-{[(trans-2-phenylcyclopropyl)amino]methyl}azetidin-1-yl)benzamide] | < 100 nM |
| CC(C)NC(=O)c1ccc(N2CC(CN[C@@H]3C[C@H]3c3ccccc3)C2)cc1F (relative stereo) [Example 11, 2-Fluoro-N-isopropyl-4-(3-{[(trans-2-phenylcyclopropyl)amino]methyl}azetidin-1-yl)benzamide] | < 100 nM |
| Cc1cc(C(=O)NC(C)C)c(F)cc1N1CC(CN[C@@H]2C[C@H]2c2ccccc2)C1 (relative stereo) [Example 12, 2-Fluoro-N-isopropyl-5-methyl-4-(3-{[(trans-2-phenylcyclopropyl)amino]methyl}azetidin-1-yl)benzamide] | < 100 nM |
| COc1cc(N2CC(CN[C@@H]3C[C@H]3c3ccccc3)C2)ccc1C(=O)NC(C)C (relative stereo) [Example 13, N-Isopropyl-2-methoxy-4-(3-{[(trans-2-phenylcyclopropyl)amino]methyl}azetidin-1-yl)benzamide] | < 100 nM |
| CC(C)NC(=O)c1ccc(N2CC(CN[C@@H]3C[C@H]3c3ccccc3)C2)c(Cl)c1 (relative stereo) [Example 14, 3-Chloro-N-isopropyl-4-(3-{[(trans-2-phenylcyclopropyl)amino]methyl}azetidin-1-yl)benzamide] | < 100 nM |
| O=C(NC1(C(F)(F)F)CC1)c1ccc(N2CC(CN[C@@H]3C[C@H]3c3ccccc3)C2)cn1 (relative stereo) [Example 15, 5-(3-{[(trans-2-Phenylcyclopropyl)amino]methyl}azetidin-1-yl)-N-[1-(trifluoromethyl)cyclopropyl]pyridine-2-carboxamide] | < 100 nM |
| CN1CCN(c2cc(N3CC(CN[C@@H]4C[C@H]4c4ccccc4)C3)ncn2)CC1 (relative stereo) [Example 16, N-({1-[6-(4-Methylpiperazin-1-yl)pyrimidin-4-yl]azetidin-3-yl}methyl)-trans-2-phenylcyclopropanamine] | < 100 nM |

| Compound | IC50 |
| --- | --- |
| Cn1cc(N2CC(CN[C@@H]3C[C@H]3c3ccccc3)C2)cn1 (relative stereo) [Example 17, trans-N-{[1-(1-Methyl-1H-pyrazol-4-yl)azetidin-3-yl]methyl}-2-phenylcyclopropanamine] | < 100 nM |
| N#CCC1(CN[C@@H]2C[C@H]2c2ccccc2)CCN(c2cccc(Cl)c2C#N)CC1 (relative stereo) [Example 18, 2-Chloro-6-(4-(cyanomethyl)-4-{[(trans-2-phenylcyclopropyl)amino]methyl}piperidin-1-yl)benzonitrile] | < 100 nM |
| N#CCC1(CN[C@@H]2C[C@H]2c2ccccc2)CCN(c2ncccc2C(F)(F)F)CC1 (relative stereo) [Example 19, {4-{[(trans-2-Phenylcyclopropyl)amino]methyl}-1-[3-(trifluoromethyl)pyridin-2-yl]piperidin-4-yl}acetonitrile] | < 100 nM |
| O=C(O)c1cccc(N2CCC(CN[C@@H]3C[C@H]3c3ccccc3)(Cc3ccc(F)cc3)CC2)n1 [Example 20, 6-[4-(4-fluorobenzyl)-4-({[(1R,2S)-2-phenylcyclopropyl]amino}methyl)piperidin-1-yl]pyridine-2-carboxylic acid] | < 100 nM |
| O=C(O)c1ccc(N2CCC(CN[C@@H]3C[C@H]3c3ccccc3)(Cc3ccc(F)cc3)CC2)cn1 [Example 21, 5-[4-(4-fluorobenzyl)-4-({[(1R,2S)-2-phenylcyclopropyl]amino}methyl)piperidin-1-yl]pyridine-2-carboxylic acid] | < 100 nM |
| O=C(O)C1(c2ccc(N3CCC(CN[C@@H]4C[C@H]4c4ccccc4)(Cc4ccc(F)cc4)CC3)cc2)CC1 [Example 22, 1-{4-[4-(4-fluorobenzyl)-4-({[(1R,2S)-2-phenylcyclopropyl]amino}methyl)piperidin-1-yl]phenyl}cyclopropanecarboxylic acid] | < 100 nM |
| COCC1(CN[C@@H]2C[C@H]2c2ccccc2)CCN(c2ccnc(C(=O)O)c2)CC1 [Example 23, 4-[4-(methoxymethyl)-4-({[(1R,2S)-2-phenylcyclopropyl]amino}methyl)piperidin-1-yl]pyridine-2-carboxylic acid] | < 100 nM |
| COCC1(CN[C@@H]2C[C@H]2c2ccccc2)CCN(c2cccc(C(=O)O)n2)CC1 [Example 24, 6-[4-(methoxymethyl)-4-({[(1R,2S)-2-phenylcyclopropyl]amino}methyl)piperidin-1-yl]pyridine-2-carboxylic acid] | < 100 nM |
| CC1(CN[C@@H]2C[C@H]2c2ccccc2)CCN(c2ccc(C(=O)O)nc2)CC1 [Example 25, 5-[4-methyl-4-({[(1R,2S)-2-phenylcyclopropyl]amino}methyl)piperidin-1-yl]pyridine-2-carboxylic acid] | < 100 nM |
| CC1(CN[C@@H]2C[C@H]2c2ccccc2)CCN(c2cccc(C(=O)O)n2)CC1 [Example 26, 6-[4-methyl-4-({[(1R,2S)-2-phenylcyclopropyl]amino}methyl)piperidin-1-yl]pyridine-2-carboxylic acid] | < 100 nM |
| CC1(CN[C@@H]2C[C@H]2c2ccccc2)CCN(c2ccnc(C(=O)O)c2)CC1 [Example 27, 4-[4-methyl-4-({[(1R,2S)-2-phenylcyclopropyl]amino}methyl)piperidin-1-yl]pyridine-2-carboxylic acid] | < 100 nM |
| CN(C)C(=O)c1ccc(N2CCC(C)(CN[C@@H]3C[C@H]3c3ccccc3)CC2)cn1 [Example 28, N,N-dimethyl-5-[4-methyl-4-({[(1R,2S)-2-phenylcyclopropyl]amino}methyl)piperidin-1-yl]pyridine-2-carboxamide] | < 100 nM |
| CNC(=O)c1ccc(N2CCC(C)(CN[C@@H]3C[C@H]3c3ccccc3)CC2)cn1 [Example 29, N-methyl-5-[4-methyl-4-({[(1R,2S)-2-phenylcyclopropyl]amino}methyl)piperidin-1-yl]pyridine-2-carboxamide] | < 100 nM |
| Nc1ccnc(N2CCC(N[C@@H]3C[C@H]3c3ccccc3)CC2)n1 [Example 30, 2-(4-{[(1R,2S)-2-phenylcyclopropyl]amino}piperidin-1-yl)pyrimidin-4-amine] | < 100 nM |
| Nc1ccnc(N2CCC(N[C@H]3C[C@@H]3c3ccccc3)CC2)n1 [Example 31, 2-(4-{[(1S,2R)-2-phenylcyclopropyl]amino}piperidin-1-yl)pyrimidin-4-amine] | 100 to 500 nM |
